Source: US12371432B2, “Haloallylamine compounds and application thereof” (TransThera Sciences (Nanjing), Inc., priority 2019, dated 2025)
Structures can show the parent of a compound that is named as a salt.

Legend:
rhAOC1 = target: T1, rhAOC1 (Homo sapiens, UniProt P19801); test: Selectivity against rhAOC1 enzyme (Biological Example 2); assay type: biochemical; conditions: Table 2; histamine substrate, Amplex Red/HRP
T1 construct: purchased R&D
T1 sequence (P19801 20-751): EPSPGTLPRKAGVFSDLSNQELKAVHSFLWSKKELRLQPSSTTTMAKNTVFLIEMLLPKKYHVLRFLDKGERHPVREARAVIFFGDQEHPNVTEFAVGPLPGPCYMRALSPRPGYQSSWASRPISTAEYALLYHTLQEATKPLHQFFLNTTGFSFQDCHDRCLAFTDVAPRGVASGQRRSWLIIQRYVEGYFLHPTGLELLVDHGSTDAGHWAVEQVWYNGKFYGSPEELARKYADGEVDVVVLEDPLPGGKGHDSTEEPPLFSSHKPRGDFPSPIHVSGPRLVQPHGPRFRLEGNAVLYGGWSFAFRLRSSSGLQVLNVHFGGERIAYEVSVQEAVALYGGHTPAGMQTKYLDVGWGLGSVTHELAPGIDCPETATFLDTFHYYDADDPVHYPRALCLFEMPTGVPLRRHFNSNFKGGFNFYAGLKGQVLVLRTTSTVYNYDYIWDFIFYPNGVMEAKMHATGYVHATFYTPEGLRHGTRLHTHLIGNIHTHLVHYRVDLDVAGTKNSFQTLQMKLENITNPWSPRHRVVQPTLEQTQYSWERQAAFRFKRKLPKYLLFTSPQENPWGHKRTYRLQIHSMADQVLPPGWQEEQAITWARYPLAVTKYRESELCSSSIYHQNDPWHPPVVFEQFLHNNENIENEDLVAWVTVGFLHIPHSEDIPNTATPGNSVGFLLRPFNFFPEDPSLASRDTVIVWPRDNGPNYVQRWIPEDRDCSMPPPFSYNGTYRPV
Procedure: 2. Selectivity of Compounds Against rhAOC1 Enzyme
(§1) (1) Instrument, Consumable and Reagent
Microplate reader (Perkin Elmer, Nivo 5S), black unclear-bottom 96-well plate (Corning) and rhAOC1 (R&D)
(§2) (2) Preparation of Concentration Gradient Compound Solutions
An appropriate amount of the compound to be tested was taken, dissolved in DMSO to 10 mM and then stored. Before the study, an appropriate amount of mother liquor of the 10 mM compound to be tested was taken and gradiently diluted 3-fold with DMSO, 10 concentration gradients in total. Each concentration gradient was then diluted 10-fold with 0.1 M of PBS.
(§3) (3) Preparation of Enzyme Solutions
An appropriate amount of rhAOC1 mother liquor with a concentration of 0.441 mg/mL was taken and diluted with an appropriate amount of 50 mM HEPES buffer solution to obtain enzyme solutions of 4× concentrations.
(§4) (4) Preparation of Substrate Mixtures of 2× Concentrations
An appropriate amount of histamine was weighed and dissolved with 50 mM of HEPES buffer solution to obtain 20 mM of histamine solution. The histamine solution was added with 2 mM of Amplex Red mother liquor and 500 U/mL of HRP mother liquor and diluted with 50 mM of HEPES buffer solution to obtain substrate mixtures of 2× concentrations.
10 μL compound solutions of different concentrations, 25 μL rhAOC1 enzyme solutions of 4× concentrations and 15 μL of 50 mM HEPES buffer solution were first added into a 96-well plate, shaken to be mixed uniformly and then incubated at 37° C. for 30 min. 50 μL substrate mixtures of 2× concentrations were then added into each well, and the microplate reader was immediately used to detect fluorescence intensity of each well with 580 nm (20 nm) exciting light and 620 nm (10 nm) emission light for 5 min each time, 30 min in total. The inhibition rate was calculated according to the following formula: V (RFU/min)=(Ft (RFU)−F0 (RFU))/(time(min)) Inhibition rate (%)=100%−Vcmpd (RFU/min)/Vmax (RFU/min)×100%
V: fluorescence change rate; Ft: fluorescence reading at time point t; F0: initial fluorescence reading; Time: duration t; Vcmpd: fluorescence change rate of tested compound; Vmax: Max hole fluorescence change rate.
(6) Fitting of Dose-Response Curve
(§5) With the log value of concentration as the X axis and the percent inhibition rate as the Y axis, the log (inhibitor) vs. response-variable slope of analysis software GraphPad Prism 5 was used to fit a dose-response curve, thus obtaining the IC50 value of activity of each compound against the enzyme.

MAO-B = target: T2, MAO-B (Homo sapiens, UniProt P27338); test: Selectivity against MAO-B enzyme (MAO-Glo); assay type: biochemical
T2 construct: purchased Active Motif
T2 sequence (P27338 1-520): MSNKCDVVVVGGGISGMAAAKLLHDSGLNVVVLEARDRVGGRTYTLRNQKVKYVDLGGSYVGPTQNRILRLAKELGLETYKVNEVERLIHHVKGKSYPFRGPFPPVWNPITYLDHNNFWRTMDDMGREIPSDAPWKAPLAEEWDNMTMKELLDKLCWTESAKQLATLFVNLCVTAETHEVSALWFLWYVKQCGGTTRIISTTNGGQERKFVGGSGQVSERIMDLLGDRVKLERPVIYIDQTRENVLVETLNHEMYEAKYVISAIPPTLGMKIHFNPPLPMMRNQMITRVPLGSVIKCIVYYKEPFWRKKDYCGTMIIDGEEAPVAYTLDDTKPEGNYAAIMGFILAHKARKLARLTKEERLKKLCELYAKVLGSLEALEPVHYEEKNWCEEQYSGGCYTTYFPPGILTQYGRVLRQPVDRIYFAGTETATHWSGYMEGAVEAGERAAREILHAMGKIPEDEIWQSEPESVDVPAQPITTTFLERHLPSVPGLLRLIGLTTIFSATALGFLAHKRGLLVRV
Procedure: as §1
Microplate reader (Perkin Elmer, EnVision), 384-well plate (Perkin Elmer), centrifuge (Eppendorf), MAO-Glo™ (Promega), MAO-A (Active Motif) and MAO-B (Active Motif).
as §2
An appropriate amount of the compound to be tested was taken, dissolved in DMSO to 10 mM and then stored. The solution was then gradiently diluted 4-fold with DMSO, 6 concentration gradients in total.
as §3
MAO-A/B mother liquor was diluted with the experimental buffer for MAO-A/B to obtain enzyme solutions of 2× concentrations.
as §4
The mother liquor of MAO-A/B substrate mixture was diluted with the experimental buffer for MAO-A/B to obtain substrate mixtures of 2× concentrations.
200 nL compound solutions or solvents of different concentrations and 10 μL MAO-A/B enzyme solutions of 2× concentrations were added into a 384-well plate, centrifuged at 1,000 rpm for 60 s, shaken to be mixed uniformly and then incubated at room temperature for 15 min. 10 μL substrate mixtures of 2× concentrations were then added into each well, and reaction was initiated. The 384-well plate was centrifuged at 1,000 rpm for 60 s, shaken for a uniform mixing and then incubated at room temperature for 60 min. 20 μL of test stop solution was added to stop reaction. Centrifugation was performed at 1,000 rpm for 60 s, and shaking was performed for uniform mixing. After 30 min of standing, the microplate reader was used to perform reading.
The inhibition rate was calculated according to the following formula: Inhibition rate (%)=(Signal_Max-Signal_sample)/(Signal_Max-Signal_min)×100 (6) Fitting of Dose-Response Curve
as §5

Row | IC50 (rhAOC1) | IC50 (MAO-B) | SMILES
1 | 50 µM | > 100 µM | CC(C)(C)N1CCc2nn(C/C(=C/F)CN)cc2C1=O [Compound A7 hydrochloride, (E)-2-(2-(aminomethyl)-3-fluoroallyl)-5-tert-butyl-2,5,6,7-tetrahydro-4H-pyrazolo[4,3-c]pyridin-4-one]
2 | 7.03 µM | 92.7 µM | Cc1c2c(cn1C/C(=C/F)CN)C(=O)N(C1CC1)CC2 [Compound A35 hydrochloride, (E)-2-(2-(aminomethyl)-3-fluoroallyl)-5-cyclopropyl-1-methyl-2,5,6,7-tetrahydro-4H-pyrrolo[3,4-c]pyridin-4-one]
3 | 9.65 µM | > 100 µM | NC/C(=C\F)Cn1cc2c(=O)n(C3CC3)ccc2n1 [Compound A41, (E)-2-(2-(aminomethyl)-3-fluoroallyl)-5-cyclopropyl-2,5-dihydro-4H-pyrazolo[4,3-c]pyridin-4-one]
4 | 8.95 µM | > 100 µM | CCN1CCc2nn(C/C(=C/F)CN)cc2C1=O [Compound A6 hydrochloride, (E)-2-(2-(aminomethyl)-3-fluoroallyl)-5-ethyl-2,5,6,7-tetrahydro-4H-pyrazolo[4,3-c]pyridin-4-one]
5 | > 100 µM | > 100 µM | NC/C(=C\F)Cn1c(Br)c2c(c1Br)C(=O)N(C1CC1)CC2 [Compound A33 hydrochloride, (E)-2-(2-(aminomethyl)-3-fluoroallyl)-1,3-dibromo-5-cyclopropyl-2,5,6,7-tetrahydro-4H-pyrrolo[3,4-c]pyridin-4-one]
6 | 0.674 µM | > 100 µM | CCn1ccc2c(cnn2C/C(=C/F)CN)c1=O [Compound A29 hydrochloride, (E)-1-(2-(aminomethyl)-3-fluoroallyl)-5-ethyl-1,5-dihydro-4H-pyrazolo[4,3-c]pyridin-4-one]
7 | 28.9 µM | > 100 µM | Cl.NC/C(=C\F)Cn1cc2c(c1Cl)CCN(C1CC1)C2=O [Compound A42 hydrochloride, (E)-2-(2-(aminomethyl)-3-fluoroallyl)-1-chloro-5-cyclopropyl-2,5,6,7-tetrahydro-4H-pyrrolo[3,4-c]pyridin-4-one]
8 | 23.6 µM | > 100 µM | Cl.NC/C(=C\F)Cn1cc2c(c1Br)CCN(C1CC1)C2=O [Compound A32 hydrochloride, (E)-2-(2-(aminomethyl)-3-fluoroallyl)-1-bromo-5-cyclopropyl-2,5,6,7-tetrahydro-4H-pyrrolo[3,4-c]pyridin-4-one]
9 | – | > 100 µM | NC/C(=C\F)Cn1ncc2c1CCN(C1CC1)C2=O [Compound A2 hydrochloride, (E)-1-(2-(aminomethyl)-3-fluoroallyl)-5-cyclopropyl-1,5,6,7-tetrahydro-4H-pyrazolo[4,3-c]pyridin-4-one]
10 | 14.8 µM | > 100 µM | NC/C(=C\F)Cn1cc2c(c1)C(=O)N(C1CC1)CC2 [Compound A22, (E)-2-(2-(aminomethyl)-3-fluoroallyl)-5-cyclopropyl-2,5,6,7-tetrahydro-4H-pyrrolo[3,4-c]pyridin-4-one]
11 | 4.06 µM | > 100 µM | CCn1ccc2nn(C/C(=C/F)CN)cc2c1=O [Compound A28 hydrochloride, (E)-2-(2-(aminomethyl)-3-fluoroallyl)-5-ethyl-2,5-dihydro-4H-pyrazolo[4,3-c]pyridin-4-one]
12 | 11.5 µM | > 100 µM | CCN1CCc2cn(C/C(=C/F)CN)cc2C1=O [Compound A25, (E)-2-(2-(aminomethyl)-3-fluoroallyl)-5-ethyl-2,5,6,7-tetrahydro-4H-pyrrolo[3,4-c]pyridin-4-one]
13 | 3.18 µM | > 100 µM | CNC(=O)c1cnn(C/C(=C/F)CN)c1 [Compound B1, (E)-1-(2-(aminomethyl)-3-fluoroallyl)-N-methyl-1H-pyrazole-4-carboxamide]
